Results from US20240299559A1, “COMPOUNDS THAT MEDIATE PROTEIN DEGRADATION AND METHODS OF USE THEREOF” (Monte Rosa Therapeutics, Inc., priority 2021, published 2024).

Key:
CDK2 = biological target: T1, CDK2 (Homo sapiens, UniProt P24941); experiment: CDK2 HiBiT assay (degradation, Dmax); format: cell-based; settings: HEK293 clonal lines with CRISPR KI HiBiT tag on CDK2, stably expressing LgBiT; 24 hours incubation
T1 construct: HEK293 clonal lines with CRISPR KI HiBiT tag on CDK2 proteins; host or cells: HEK293 clonal line with CRISPR knock-in HiBiT on CDK2, stably expressing LgBiT
Method in brief: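 HEK293 with endogenous HiBiT-tagged CDK2 and stable LgBiT, 5000 cells/well, treated 24 h at 37 °C (compound source plate 30 μM). Luminescence after HiBiT lysis reagent 15 min, normalized to plate controls; 3-parameter logistic fit (Hill slope 1) gives EC50 and Dmax.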

CRBN-DDB1 = CRBN-DDB1 (Homo sapiens, UniProt Q96SW2); experiment: Compound binding to CRBN by HTRF assay; settings: CRBN-DDB1 2.5 nM, Cy5-Thalidomide 100 nM probe; Ki from geometric mean of IC50 by Cheng-Prustoff transformation
Chain of CRBN-DDB1 (Q96SW2 whole entry): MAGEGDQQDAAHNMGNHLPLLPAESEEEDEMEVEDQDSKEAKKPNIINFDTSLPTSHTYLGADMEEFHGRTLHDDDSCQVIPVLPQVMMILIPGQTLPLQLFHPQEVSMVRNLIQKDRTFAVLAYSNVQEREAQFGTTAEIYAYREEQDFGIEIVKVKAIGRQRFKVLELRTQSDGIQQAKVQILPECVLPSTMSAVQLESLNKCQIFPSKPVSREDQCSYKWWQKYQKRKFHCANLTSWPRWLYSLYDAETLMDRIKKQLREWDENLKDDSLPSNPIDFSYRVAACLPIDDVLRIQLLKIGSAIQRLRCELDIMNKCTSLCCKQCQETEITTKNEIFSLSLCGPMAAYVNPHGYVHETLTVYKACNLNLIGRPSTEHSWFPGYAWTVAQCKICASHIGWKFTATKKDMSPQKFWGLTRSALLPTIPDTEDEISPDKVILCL
Chain of CRBN-DDB1 (Q16531 whole entry partner): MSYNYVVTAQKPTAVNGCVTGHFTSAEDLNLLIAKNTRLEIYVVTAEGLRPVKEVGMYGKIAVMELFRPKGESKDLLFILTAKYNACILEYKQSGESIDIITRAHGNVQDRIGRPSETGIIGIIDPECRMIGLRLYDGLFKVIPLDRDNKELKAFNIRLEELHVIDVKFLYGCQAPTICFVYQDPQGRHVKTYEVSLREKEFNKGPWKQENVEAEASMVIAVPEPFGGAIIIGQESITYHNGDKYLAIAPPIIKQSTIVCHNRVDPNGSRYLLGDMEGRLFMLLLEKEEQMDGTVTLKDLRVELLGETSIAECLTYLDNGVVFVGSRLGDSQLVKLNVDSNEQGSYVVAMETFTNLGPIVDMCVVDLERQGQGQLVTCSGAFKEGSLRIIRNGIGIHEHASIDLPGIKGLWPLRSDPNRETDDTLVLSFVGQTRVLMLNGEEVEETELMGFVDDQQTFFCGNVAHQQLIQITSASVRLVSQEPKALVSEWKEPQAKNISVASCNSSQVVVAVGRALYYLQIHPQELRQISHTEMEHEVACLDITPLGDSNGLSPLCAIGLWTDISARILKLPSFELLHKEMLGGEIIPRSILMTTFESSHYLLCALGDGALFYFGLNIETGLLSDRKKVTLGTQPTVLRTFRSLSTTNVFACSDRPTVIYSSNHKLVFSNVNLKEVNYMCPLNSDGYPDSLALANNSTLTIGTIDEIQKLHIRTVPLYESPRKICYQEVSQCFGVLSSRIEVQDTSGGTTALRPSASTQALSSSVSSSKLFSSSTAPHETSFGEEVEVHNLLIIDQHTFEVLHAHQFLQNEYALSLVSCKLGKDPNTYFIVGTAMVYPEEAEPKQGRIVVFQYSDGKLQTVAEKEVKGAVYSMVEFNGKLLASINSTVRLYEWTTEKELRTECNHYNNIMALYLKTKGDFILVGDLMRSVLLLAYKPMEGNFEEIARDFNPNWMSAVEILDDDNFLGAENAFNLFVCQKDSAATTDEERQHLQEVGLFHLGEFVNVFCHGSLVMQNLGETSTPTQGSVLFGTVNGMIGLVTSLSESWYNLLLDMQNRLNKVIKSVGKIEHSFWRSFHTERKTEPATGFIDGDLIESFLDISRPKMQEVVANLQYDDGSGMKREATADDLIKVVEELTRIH
Method in brief: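 HTRF competition used 2.5 nM His-tagged CRBN-DDB1, anti-His terbium cryptate and 100 nM Cy5-thalidomide probe in 20 mM HEPES, 20 mM NaCl, 0.2 mM TCEP, 0.2 mM EDTA, 0.005% Tween20. Compounds ran as 10-point 1:3 series for 30 min at ambient temperature, with the 665/620 nm signal normalized to lenalidomide and DMSO controls. Ki came from geometric-mean IC50 by Cheng-Prusoff.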

Compound	Dmax (CDK2)	Ki (CRBN-DDB1)
O=C1CCC(N2Cc3ccc(CNC(=O)OCc4ccc(OC(F)(F)F)cc4)cc3C2=O)C(=O)N1 (stereo not shown) [Compound 69, 4-(trifluoromethoxy)benzyl ((2-(2,6-dioxopiperidin-3-yl)-3-oxoisoindolin-5-yl)methyl)carbamate]	10 to 50%	100 to 1000 nM
N#Cc1cc(CNc2nnc(-c3ccccc3)o2)cc2c1CN(C1CCC(=O)NC1=O)C2=O (stereo not shown) [Compound 70, 2-(2,6-dioxopiperidin-3-yl)-1-oxo-6-(((5-phenyl-1,3,4-oxadiazol-2-yl)amino)methyl)isoindoline-4-carbonitrile]	10 to 50%	100 to 1000 nM
O=C1CCC(N2Cc3ccc(CNc4nnc(-c5ccccc5)o4)cc3C2=O)C(=O)N1 (stereo not shown) [Compound 72, 3-(1-oxo-6-(((5-phenyl-1,3,4-oxadiazol-2-yl)amino)methyl)isoindolin-2-yl)piperidine-2,6-dione]	10 to 50%	≤ 100 nM
O=C1CCC(N2Cc3ccc(CNc4nnc(-c5ccc(OC(F)(F)F)cc5)o4)c(O)c3C2=O)C(=O)N1 (stereo not shown) [Compound 75, 3-(7-hydroxy-1-oxo-6-(((5-(4-(trifluoromethoxy)phenyl)-1,3,4-oxadiazol-2-yl)amino)methyl)isoindolin-2-yl)piperidine-2,6-dione]	10 to 50%	100 to 1000 nM

Next, values leading:

Dmax (CDK2)	Ki (CRBN-DDB1)	Compound
≤ 10%	100 to 1000 nM	CC[C@H](Cc1ccccc1)OC(=O)NCc1ccc2c(c1)C(=O)N(C1CCC(=O)NC1=O)C2 (stereo partly drawn) [Compound 68, (2R)-1-phenylbutan-2-yl N-{[2-(2,6-dioxopiperidin-3-yl)-3-oxo-2,3-dihydro-1H-isoindol-5-yl]methyl}carbamate]
50 to 80%	100 to 1000 nM	O=C1CCC(N2Cc3ccc(CNc4nnc(-c5ccc(OC(F)(F)F)cc5)o4)cc3C2=O)C(=O)N1 (stereo not shown) [Compound 71, 3-(1-oxo-6-(((5-(4-(trifluoromethoxy)phenyl)-1,3,4-oxadiazol-2-yl)amino)methyl)isoindolin-2-yl)piperidine-2,6-dione]
50 to 80%	≤ 100 nM	O=C1CCC(N2Cc3c(Cl)cc(CNc4nnc(-c5ccc(OC(F)(F)F)cc5)o4)cc3C2=O)C(=O)N1 (stereo not shown) [Compound 73, 3-(4-chloro-1-oxo-6-(((5-(4-(trifluoromethoxy)phenyl)-1,3,4-oxadiazol-2-yl)amino)methyl)isoindolin-2-yl)piperidine-2,6-dione]
10 to 50%	100 to 1000 nM	N#Cc1cc(CNc2nnc(-c3ccc(OC(F)(F)F)cc3)o2)cc2c1CN(C1CCC(=O)NC1=O)C2=O (stereo not shown) [Compound 74, 2-(2,6-dioxopiperidin-3-yl)-1-oxo-6-(((5-(4-(trifluoromethoxy)phenyl)-1,3,4-oxadiazol-2-yl)amino)methyl)isoindoline-4-carbonitrile]
